Source: patent US20240148821A1, “PHARMACEUTICAL USE OF CYCLIC PEPTIDE COMPOUND” (CHUGAI SEIYAKU KABUSHIKI KAISHA, priority 2021, published 2024)
Numbered stars: 1 amine (or outer) side, 2 acyl side, 3 side chain; on linkers, the order of the positions; unused ones are H or OH. Bridge positions count the residues as written; N and C are the ends. Square brackets hold non-standard residues; d marks the D form. Peptide text beside a SMILES is read from it. * marks the point of attachment. hPhe(3,5-F2-4-CF3) = N[C@@H](CCc1cc(F)c(C(F)(F)F)c(F)c1)C(=O)O; hPhe(3-Cl-4-CF3) = N[C@@H](CCc1ccc(C(F)(F)F)c(Cl)c1)C(=O)O; NEtPhe(4-CF3) = CCN[C@@H](Cc1ccc(C(F)(F)F)cc1)C(=O)O; NMePhe(4-CF3) = CN[C@@H](Cc1ccc(C(F)(F)F)cc1)C(=O)O; NEtPhe(4-Me) = CCN[C@@H](Cc1ccc(C)cc1)C(=O)O; NMeAbu(4,4,4-F3) = CN[C@@H](CC(F)(F)F)C(=O)O; NMePhe(4-Me) = CN[C@@H](Cc1ccc(C)cc1)C(=O)O; NMedβ3hAla = C[C@H](CC(=O)[*:2])N(C)[*:1]; NMeAla(cPent) = CN[C@@H](CC1CCCC1)C(=O)O; NMeGly(cPent) = CN[C@H](C(=O)O)C1CCCC1; Pro(4,4-F2) = O=C(O)[C@@H]1CC(F)(F)CN1; NMeCha = CN[C@@H](CC1CCCCC1)C(=O)O; NMehLeu = CN[C@@H](CCC(C)C)C(=O)O; Hyp = O=C(O)[C@@H]1C[C@@H](O)CN1; NEtLeu = CCN[C@@H](CC(C)C)C(=O)O; NMeChg = CN[C@H](C(=O)O)C1CCCCC1; NMeI = CC[C@H](C)[C@H](NC)C(=O)O; NMeD = CN[C@@H](CC(=O)O)C(=O)O; NMeL = CN[C@@H](CC(C)C)C(=O)O; NMeNva = CCC[C@H](NC)C(=O)O; Morpholide = C1CN(*)CCO1; NMeA = CN[C@@H](C)C(=O)O; NMeAib = CNC(C)(C)C(=O)O; Pyrrolidide = C1CCN(*)C1; Ac5c = NC1(C(=O)O)CCCC1; Aze = O=C(O)[C@@H]1CCN1; Ac4c = NC1(C(=O)O)CCC1; Sar = CNCC(=O)O

Columns and labels:
[1] = test system: Human pancreatic cancer cell line AsPC-1 (G12D mutation Kras); test: AsPC-1 cell growth inhibition (AsPC-1 CGI); type: cell-based; details: read-out: AsPC-1 cell growth inhibition, 50% growth inhibitory concentration (IC50 value); 96 hours, CellTiter-Glo, values classified in ranges
Experimental: Test compounds were serially dilated with dimethyl sulfoxide, and 200 nL was then dispensed to a U-bottom 96-well plate using Labcyte Echo. […] The cell suspension was dispensed to a. plate containing a test compound at 100 μL per well and incubated at 37° C. in a 5% carbon dioxide gas incubator. 96 hours later, 80 μL of CellTiter-Glo (Promega) was added to each well and fluorescence was measured.

[2] = molecular target: protein-protein interaction between Kras and SOS1 (biotin-tagged human Kras loaded with GDP, His-tagged human SOS1) (Homo sapiens (Human), UniProt P01116, G12D); test: Protein-protein interaction inhibition between Kras and SOS1 (KrasG12D-SOS PPI) using AlphaScreen; type: biochemical; details: AlphaScreen; biotin-tagged human Kras loaded with GDP, His-tagged human SOS1; read-out: KRAS G12D-SOS PPI IC50;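 further: kras produced in E. coli, Ni-coupled donor beads and streptavidin acceptor beads, excitation 680 nm with emission detected at 520–620 nm via singlet oxygen transfer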

SMILES | IC50 [1] [nM] | IC50 [2] [nM]
CC[C@H](C)[C@@H]1NC(=O)[C@H](CC(C)C)N(C)C(=O)C[C@@H](C(=O)N2CCOCC2)N(C)C(=O)[C@H]([C@@H](C)CC)N(C)C(=O)C2(CCCC2)NC(=O)[C@@H]2CC(F)(F)CN2C(=O)[C@H](CCc2cc(F)c(C(F)(F)F)c(F)c2)NC(=O)CN(C)C(=O)[C@H](Cc2ccc(C(F)(F)F)cc2)N(C)C(=O)[C@@H]2CCN2C(=O)[C@H](C)N(C)C1=O [Compound 1348] ([NMeL]I[NMeA][Aze][NMePhe(4-CF3)][Sar][hPhe(3,5-F2-4-CF3)][Pro(4,4-F2)][Ac5c][NMeI][NMeD]-Morpholide; lactam N-11) | ≤ 20 | 0.62
CC[C@H](C)[C@@H]1NC(=O)[C@H](CC(C)C)N(C)C(=O)C[C@@H](C(=O)N2CCCC2)N(C)C(=O)[C@H]([C@@H](C)CC)N(C)C(=O)C2(CCCC2)NC(=O)[C@@H]2CCCN2C(=O)[C@H](CCc2cc(F)c(C(F)(F)F)c(F)c2)NC(=O)CN(C)C(=O)[C@H](Cc2ccc(C)cc2)N(CC)C(=O)[C@@H]2CCN2C(=O)[C@H](C)N(C)C1=O [Compound 1351] ([NMeL]I[NMeA][Aze][NEtPhe(4-Me)][Sar][hPhe(3,5-F2-4-CF3)]P[Ac5c][NMeI][NMeD]-Pyrrolidide; lactam N-11) | ≤ 20 | 0.82
CC[C@H](C)[C@@H]1NC(=O)[C@H](CCC(C)C)N(C)C(=O)C[C@@H](C(=O)N2CCOCC2)N(C)C(=O)[C@H]([C@@H](C)CC)N(C)C(=O)C2(CCCC2)NC(=O)[C@@H]2CCCN2C(=O)[C@H](CCc2ccc(C(F)(F)F)c(Cl)c2)NC(=O)CN(C)C(=O)[C@H](Cc2ccc(C(F)(F)F)cc2)N(C)C(=O)[C@@H]2CCN2C(=O)[C@H](C)NC1=O [Compound 1356] ([NMehLeu]IA[Aze][NMePhe(4-CF3)][Sar][hPhe(3-Cl-4-CF3)]P[Ac5c][NMeI][NMeD]-Morpholide; lactam N-11) | ≤ 20 | 1.1
CC[C@H](C)[C@@H]1NC(=O)[C@H](CC(C)C)N(C)C(=O)C[C@@H](C(=O)N2CCCC2)N(C)C(=O)[C@H]([C@@H](C)CC)N(C)C(=O)C2(CCCC2)NC(=O)[C@@H]2CCCN2C(=O)[C@H](CCc2ccc(C(F)(F)F)c(Cl)c2)NC(=O)CN(C)C(=O)[C@H](Cc2ccc(C(F)(F)F)cc2)N(C)C(=O)[C@@H]2CCN2C(=O)[C@H](C)NC1=O [Compound 1360] ([NMeL]IA[Aze][NMePhe(4-CF3)][Sar][hPhe(3-Cl-4-CF3)]P[Ac5c][NMeI][NMeD]-Pyrrolidide; lactam N-11) | ≤ 20 | 0.97
CC[C@H](C)[C@@H]1NC(=O)[C@H](CC(C)C)N(C)C(=O)C[C@@H](C(=O)N2CCOCC2)N(C)C(=O)[C@H]([C@@H](C)CC)N(C)C(=O)C2(CCCC2)NC(=O)[C@@H]2CCCN2C(=O)[C@H](CCc2cc(F)c(C(F)(F)F)c(F)c2)NC(=O)CN(C)C(=O)[C@H](Cc2ccc(C(F)(F)F)cc2)N(C)C(=O)[C@@H]2CCN2C(=O)[C@H](C)N(C)C1=O [Compound 1362] ([NMeL]I[NMeA][Aze][NMePhe(4-CF3)][Sar][hPhe(3,5-F2-4-CF3)]P[Ac5c][NMeI][NMeD]-Morpholide; lactam N-11) | ≤ 20 | 0.81
CC[C@H](C)[C@@H]1NC(=O)[C@H](CC(C)C)N(C)C(=O)C[C@@H](C(=O)N2CCOCC2)N(C)C(=O)[C@H]([C@@H](C)CC)N(C)C(=O)C2(CCCC2)NC(=O)[C@@H]2CCCN2C(=O)[C@H](CCc2cc(F)c(C(F)(F)F)c(F)c2)NC(=O)CN(C)C(=O)[C@H](Cc2ccc(C(F)(F)F)cc2)N(CC)C(=O)[C@@H]2CCN2C(=O)[C@H](C)N(C)C1=O [Compound 1364] ([NMeL]I[NMeA][Aze][NEtPhe(4-CF3)][Sar][hPhe(3,5-F2-4-CF3)]P[Ac5c][NMeI][NMeD]-Morpholide; lactam N-11) | ≤ 20 | 1.2
CC[C@H](C)[C@@H]1NC(=O)[C@H](CC(C)C)N(CC)C(=O)C[C@@H](C(=O)N(C)C)N(C)C(=O)[C@H]([C@@H](C)CC)N(C)C(=O)C2(CCCC2)NC(=O)[C@@H]2CCCN2C(=O)[C@H](CCc2ccc(C(F)(F)F)c(Cl)c2)NC(=O)CN(C)C(=O)[C@H](Cc2ccc(C)cc2)N(C)C(=O)[C@@H]2CCN2C(=O)[C@H](C)N(C)C1=O [Compound 1365] ([NEtLeu]I[NMeA][Aze][NMePhe(4-Me)][Sar][hPhe(3-Cl-4-CF3)]P[Ac5c][NMeI][NMeD]-NMe2; lactam N-11) | ≤ 20 | 1.2
CCO[C@@H]1C[C@H]2C(=O)NC3(CCC3)C(=O)N(C)[C@@H](C3CCCCC3)C(=O)N(C)[C@H](C(=O)N3CCCC3)CC(=O)N(C)[C@@H](CC(C)C)C(=O)N[C@@H]([C@@H](C)CC)C(=O)N(C)CC(=O)N(C)CC(=O)N(C)[C@@H](CC3CCCCC3)C(=O)N(C)CC(=O)N[C@@H](CCc3cc(F)c(C(F)(F)F)c(F)c3)C(=O)N2C1 [Compound 1366] ([NMeL]I[Sar][Sar][NMeCha][Sar][hPhe(3,5-F2-4-CF3)][Hyp](Et)[Ac4c][NMeChg][NMeD]-Pyrrolidide; lactam N-11) | ≤ 20 | 0.63
CCC[C@H]1C(=O)N[C@@H]([C@@H](C)CC)C(=O)N(C)CC(=O)N(C)CC(=O)N(C)[C@@H](CC2CCCCC2)C(=O)N(C)CC(=O)N[C@@H](CCc2cc(F)c(C(F)(F)F)c(F)c2)C(=O)N2C[C@H](OCC)C[C@H]2C(=O)NC2(CCCC2)C(=O)N(C)[C@@H](C2CCCCC2)C(=O)N(C)[C@H](C(=O)N2CCCC2)CC(=O)N1C [Compound 1367] ([NMeNva]I[Sar][Sar][NMeCha][Sar][hPhe(3,5-F2-4-CF3)][Hyp](Et)[Ac5c][NMeChg][NMeD]-Pyrrolidide; lactam N-11) | ≤ 20 | 0.65
CCO[C@@H]1C[C@H]2C(=O)NC3(CCCC3)C(=O)N(C)[C@@H](C3CCCCC3)C(=O)N(C)[C@H](C(=O)N3CCCC3)CC(=O)N(C)[C@@H](CC(F)(F)F)C(=O)N[C@@H]([C@@H](C)CC)C(=O)N(C)CC(=O)N(C)CC(=O)N(C)[C@@H](CC3CCCCC3)C(=O)N(C)CC(=O)N[C@@H](CCc3ccc(C(F)(F)F)c(Cl)c3)C(=O)N2C1 [Compound 1369] ([NMeAbu(4,4,4-F3)]I[Sar][Sar][NMeCha][Sar][hPhe(3-Cl-4-CF3)][Hyp](Et)[Ac5c][NMeChg][NMeD]-Pyrrolidide; lactam N-11) | ≤ 20 | 0.55
CCO[C@@H]1C[C@H]2C(=O)NC3(CCCC3)C(=O)N(C)[C@@H](C3CCCC3)C(=O)N(C)[C@H](C(=O)N3CCCC3)CC(=O)N(C)[C@@H](CC(C)C)C(=O)N[C@@H]([C@@H](C)CC)C(=O)N(C)CC(=O)N(C)CC(=O)N(C)[C@@H](CC3CCCCC3)C(=O)N(C)CC(=O)N[C@@H](CCc3ccc(C(F)(F)F)c(Cl)c3)C(=O)N2C1 [Compound 1370] ([NMeL]I[Sar][Sar][NMeCha][Sar][hPhe(3-Cl-4-CF3)][Hyp](Et)[Ac5c][NMeGly(cPent)][NMeD]-Pyrrolidide; lactam N-11) | ≤ 20 | 0.6
CC[C@H](C)[C@@H]1NC(=O)[C@H](CC2CCCC2)N(C)C(=O)C[C@@H](C(=O)N2CCOCC2)N(C)C(=O)[C@H]([C@@H](C)CC)N(C)C(=O)C2(CCCC2)NC(=O)[C@@H]2CCCN2C(=O)[C@H](CCc2ccc(C(F)(F)F)c(Cl)c2)NC(=O)CN(C)C(=O)[C@H](Cc2ccc(C(F)(F)F)cc2)N(C)C(=O)[C@@H]2CCN2C(=O)[C@H](C)NC1=O [Compound 1371] ([NMeAla(cPent)]IA[Aze][NMePhe(4-CF3)][Sar][hPhe(3-Cl-4-CF3)]P[Ac5c][NMeI][NMeD]-Morpholide; lactam N-11) | ≤ 20 | 1.6
CC[C@H](C)[C@@H]1NC(=O)[C@H](C)N(C)C(=O)C[C@@H](C)N(C)C(=O)[C@H](CC(C)C)NC(=O)C(C)(C)N(C)C(=O)[C@H](CC(C)C)NC(=O)[C@H](CCc2ccc(C(F)(F)F)c(Cl)c2)NC(=O)CN(C)C(=O)[C@H](CC2CCCCC2)N(C)C(=O)CN(C)C(=O)CN(C)C1=O [Compound 1380] (cyclo(I[Sar][Sar][NMeCha][Sar][hPhe(3-Cl-4-CF3)]L[NMeAib]L[NMedβ3hAla][NMeA])) | > 500 | 16
CC[C@H](C)[C@@H]1NC(=O)[C@H](CC(C)C)N(C)C(=O)C[C@@H](C)N(C)C(=O)[C@H](CC(C)C)NC(=O)C(C)(C)N(C)C(=O)[C@H](CC(C)C)NC(=O)[C@H](CCc2ccc(C(F)(F)F)c(Cl)c2)NC(=O)CN(C)C(=O)[C@H](Cc2ccc(C)cc2)N(C)C(=O)CN(C)C(=O)CN(C)C1=O [Compound 1388] (cyclo(I[Sar][Sar][NMePhe(4-Me)][Sar][hPhe(3-Cl-4-CF3)]L[NMeAib]L[NMedβ3hAla][NMeL])) | > 500 | 10
CC[C@H](C)[C@@H]1NC(=O)[C@H](C)N(C)C(=O)C[C@@H](C)N(C)C(=O)[C@H](CC(C)C)NC(=O)C(C)(C)N(C)C(=O)[C@H](CC(C)C)NC(=O)[C@H](CCc2ccc(C(F)(F)F)c(Cl)c2)NC(=O)CN(C)C(=O)[C@H](Cc2ccc(C(F)(F)F)cc2)N(C)C(=O)CN(C)C(=O)CN(C)C1=O [Compound 1397] (cyclo(I[Sar][Sar][NMePhe(4-CF3)][Sar][hPhe(3-Cl-4-CF3)]L[NMeAib]L[NMedβ3hAla][NMeA])) | > 500 | 6.4
CC[C@H](C)[C@@H]1NC(=O)[C@H](C)N(C)C(=O)C[C@@H](C)N(C)C(=O)[C@H](CC(C)C)NC(=O)C(C)(C)N(C)C(=O)[C@H](CC(C)C)NC(=O)[C@H](CCc2ccc(C(F)(F)F)c(Cl)c2)NC(=O)CN(C)C(=O)[C@H](Cc2ccc(C)cc2)N(C)C(=O)CN(C)C(=O)CN(C)C1=O [Compound 1398] (cyclo(I[Sar][Sar][NMePhe(4-Me)][Sar][hPhe(3-Cl-4-CF3)]L[NMeAib]L[NMedβ3hAla][NMeA])) | > 500 | 6.6
